Entries after “also recorded” stand apart in the source; their conditions may differ.
Legend:
CK2 [1] = target: T1, CK2 (Homo sapiens, UniProt P68400); details: number of kinases; ref Battistutta et al., 2011; cited from earlier work
T1 construct: made in house
T1 sequence (P68400 1-336): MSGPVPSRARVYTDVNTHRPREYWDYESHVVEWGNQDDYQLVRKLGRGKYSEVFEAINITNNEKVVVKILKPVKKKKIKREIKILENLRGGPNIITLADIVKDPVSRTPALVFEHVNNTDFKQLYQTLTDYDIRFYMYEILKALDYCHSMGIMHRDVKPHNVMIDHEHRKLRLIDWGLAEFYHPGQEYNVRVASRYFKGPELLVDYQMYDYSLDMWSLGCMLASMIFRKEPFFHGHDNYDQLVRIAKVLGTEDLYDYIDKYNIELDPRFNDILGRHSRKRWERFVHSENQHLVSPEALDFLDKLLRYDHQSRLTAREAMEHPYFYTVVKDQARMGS

[2] = target: T2, full-length CK2α (FL-CK2α) (Homo sapiens, UniProt P68400); assay: Radioactive kinase assay, CK2-tide substrate, full-length CK2α; format: biochemical; details: CK2-tide substrate 0.1 mM, 20 μM ATP, pH 7.5; mean ± SEM
T2 construct: made in house
T2 sequence (P68400 whole entry): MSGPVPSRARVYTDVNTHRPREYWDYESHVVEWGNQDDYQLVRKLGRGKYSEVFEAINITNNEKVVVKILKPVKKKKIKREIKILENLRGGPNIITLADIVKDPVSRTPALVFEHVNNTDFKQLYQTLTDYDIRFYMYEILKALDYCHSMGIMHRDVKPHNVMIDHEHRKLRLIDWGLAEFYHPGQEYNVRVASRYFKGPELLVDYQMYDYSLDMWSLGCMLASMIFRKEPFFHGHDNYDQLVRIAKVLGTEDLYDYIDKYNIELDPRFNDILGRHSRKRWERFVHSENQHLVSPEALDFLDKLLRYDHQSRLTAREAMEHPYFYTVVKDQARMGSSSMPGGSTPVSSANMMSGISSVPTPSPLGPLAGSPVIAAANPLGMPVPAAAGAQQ
Experimental: (§1) For IC50 (concentrations inducing 50% inhibition) analysis, recombinant tetrameric CK2 (α2β2), or C-terminal-deleted CK2α (CK2α^1–336), or full length CK2α (7.5 ng) were incubated with 0.1 mM synthetic peptide substrate RRRADDSDDDDD (CK2-tide), in a phosphorylation buffer containing 50 mM Tris-HCl pH 7.5, 10 mM MgCl2, 20 μM [γ-^33P]ATP (1,000–2,000 cpm/pmol), in a final volume of 20 μl, with increasing concentrations of the inhibitor. In the case of tetrameric CK2, 0.1 M NaCl was also present in the phosphorylation mixture. Controls were performed in the absence of any inhibitor, but with equal volume of vehicle (H2O). Reactions were performed at 30°C for 12 min and stopped by sample absorption on phospho-cellulose papers. Papers were washed three times with 75 mM phosphoric acid and counted in a scintillation counter (PerkinElmer). In the case of casein substrate (used at 0.05 mg/ml concentration), reactions were stopped by the addition of Laemmli loading buffer, samples were analyzed by 11% SDS-PAGE, and radioactive bands were detected and quantified by digital autoradiography (Cyclone plus storage phosphor system, PerkinElmer). IC50 calculation was obtained by analysis of the results with GraphPad Prism 7.0a software.

[3] = target: T3, C-terminal-deleted CK2α (CK2α 1-336) (Homo sapiens, UniProt P68400); assay: Radioactive kinase assay, CK2-tide substrate, C-terminal truncated CK2α; format: biochemical; details: CK2-tide substrate 0.1 mM, 20 μM ATP, pH 7.5, mean ± SEM
T3 construct: Human CK2α (residues 1-336) was produced as previously reported; made in house; host or cells: E. coli BL21-DE3
T3 sequence (P68400 1-336): T1 sequence (P68400 1-336)
Experimental: (§2) Recombinant full-length CK2α and tetrameric CK2 (α2β2) [produced as in ([Venerando et al., 2013])] were kindly provided by Dr. Andrea Venerando (University of Parma, Italy). Human CK2α (residues 1-336) was produced as previously reported ([Papinutto et al., 2012]). Briefly, after expression in E. coli BL21-DE3, the protein was purified by two chromatographic steps, with heparin affinity chromatography (5 ml HiTrap Eparin HP column, GE Healthcare) and size-exclusion chromatography (HiLoad 16/60 Superdex 75 pg column, GE Healthcare). Protein eluted in 25 mM Tris, 500 mM NaCl, 1 mM DTT, pH = 8.5 was concentrated to 13.3 mg/ml, flash-frozen in liquid nitrogen and stored at −80°C.
For IC50 (concentrations inducing 50% inhibition) analysis, recombinant tetrameric CK2 (α2β2), or C-terminal-deleted CK2α (CK2α^1–336), or full length CK2α (7.5 ng) were incubated with 0.1 mM synthetic peptide substrate RRRADDSDDDDD (CK2-tide), in a phosphorylation buffer containing 50 mM Tris-HCl pH 7.5, 10 mM MgCl2, 20 μM [γ-^33P]ATP (1,000–2,000 cpm/pmol), in a final volume of 20 μl, with increasing concentrations of the inhibitor. In the case of tetrameric CK2, 0.1 M NaCl was also present in the phosphorylation mixture. Controls were performed in the absence of any inhibitor, but with equal volume of vehicle (H2O). […]

tetrameric CK2 (α2β2) = target: T4, tetrameric CK2 (α2β2) (Homo sapiens, UniProt P68400); assay: Radioactive kinase assay, CK2-tide substrate, tetrameric holoenzyme; format: biochemical; details: 0.1 M NaCl present, mean ± SEM
T4 construct: made in house
T4 sequence (P68400 whole entry): as above
T4 sequence (P67870 2-215 partner limits assumed): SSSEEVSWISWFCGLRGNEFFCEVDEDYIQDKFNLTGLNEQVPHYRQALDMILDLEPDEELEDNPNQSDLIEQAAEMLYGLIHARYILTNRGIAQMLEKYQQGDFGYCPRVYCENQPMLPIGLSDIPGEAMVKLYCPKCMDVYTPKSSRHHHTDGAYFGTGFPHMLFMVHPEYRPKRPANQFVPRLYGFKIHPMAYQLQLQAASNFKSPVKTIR
Experimental: as §1

CK2 [4] = target: T1, CK2; assay: Radioactive kinase assay with casein as substrate; format: biochemical; details: casein 0.05 mg/ml replaced CK2-tide
Experimental: as §1

CK2 [5] = target: T1, CK2; assay: Kinetics analysis (Michaelis-Menten) with increasing CK2-tide or casein; format: biochemical
Experimental: as §1
For kinetics analysis, the assays were performed with increasing concentrations of CK2-tide or casein, in the phosphorylation buffer described above, but with 100 μM ATP concentration.

recombinant CK2α = tested on: T5, recombinant CK2α; assay: Radioactive phosphorylation assay at different pH and NaCl concentration; format: biochemical; details: 5 nM Ru4POM
T5 construct: made in house
Experimental: as §1, with “[…],” for “in a phosphorylation buffer containing 50 mM Tris-HCl pH 7.5,”, “In the case of tetrameric CK2, 0.1 M NaCl was also present in the phosphorylation mixture.” left out

[6] = tested on: endogenous CK2 in HEK-293T cells; assay: Endo-cellular CK2 activity assay (Akt1 phospho-Ser129 Western blot); format: cell-based, human
Experimental: HEK-293T cells (human embryo kidney fibroblasts) were cultured in an atmosphere containing 5% CO2, maintained in DMEM medium (Sigma), supplemented with 10% (v/v) fetal bovine serum (FBS), 2 mM L-glutamine, 100 U/ml penicillin, and […] streptomycin. Cell treatments with Ru4POM were performed in the culture medium. When used, the cationic transfection reagents PEI (Thermo Scientific) or JetOpitmus (Polyplus-transfection) were mixed with Ru4POM and incubated for 1 h at room temperature, before adding the mix to the cells. After 24 h cells were lysed as previously described ([Zanin et al., 2012]). Protein concentration was determined by the Bradford method.
Endo-cellular CK2 activity was evaluated by assessing the phosphorylation state of the CK2 substrate Akt phospho-Ser129 (Abcam) ([Ruzzene et al., 2010]). For this purpose, equal amounts of proteins from treated cells were loaded on 11% SDS-PAGE, blotted on Immobilon-P membranes (Millipore), processed in Western blot (WB), and detected by chemiluminescence.
Quantitation of the signal was obtained by chemiluminescence detection on ImageQuant LAS 500 (GE Healthcare Life Sciences) and analysis with Carestream Molecular Imaging software (Carestream).

CK2α = target: T6, CK2α (Homo sapiens, UniProt P68400); assay: Isothermal titration calorimetry; format: binding; details: 25 mM Tris, 500 mM NaCl
T6 construct: Human CK2α (residues 1-336) was produced as previously reported; made in house; host or cells: E. coli BL21-DE3
T6 sequence (P68400 1-336): T1 sequence (P68400 1-336)
Experimental: as §2
Isothermal titration calorimetry (ITC) experiments were performed using a Malvern PEAQ-ITC microcalorimeter, at 25°C, with a 270 μl sample cell and a computer controlled microsyringe for titrant injections. CK2α (20–30 μM) and Ru4POM (200–400 μM) samples were in 25 mM Tris, 500 mM NaCl, pH = 8.5. After baseline stabilization, a further delay of 60 s was used before the first injection. In each individual titration, a starting Ru4POM injection of 0.4 μl in 0.8 s was followed by other 12 injections of 3 μl with a duration of 6 s each. A delay of 150 s was applied between each Ru4POM injection. Wiseman plot of integrated data was automatically obtained by software analysis (excluding the heat referred to the first 0.4 μl injection) and then it was fitted by theoretical binding curve using the one site model.

[7] = Stability monitored by UV-vis in buffered aqueous environment; format: physicochemical; details: buffered/saline aqueous environments, up to pH 8.5, over 24 h
Experimental: Na10[Ru4(H2O)4(μ-O)4(μ-OH)2(γ-SiW10O36)2], Ru4POM, was prepared following a published procedure ([Galiano et al., 2021]). Ru4POM identity was confirmed by FTIR, while its stability was monitored by UV-vis, by using a Cary 100 instrument (Varian), in buffered aqueous environment (25 mM Tris, pH 8.5) over 24 h (Supplementary Figure S6).
Suppl. Fig. 6. UV-vis spectrophotometric monitoring of Ru4POM (5µM) stability in 25 mM Tris and
500 mM NaCl (pH=8.5) over time (up to 24 h). A quartz cuvette with path length 1 cm was used.
(1 picture or pasted object on this page, not shown here)

[8] = parameters: method as in Prudent et al., 2008; details: ref Prudent et al., 2008; cited from earlier work

## O=C(O)c1ccc2c(c1)nc(Nc1cccc(Cl)c1)c1ccncc12 [CX-4945, silmitasertib]
CK2 [1]
  other kinases inhibited with nanomolar activity: 12

## (NH4)12[Mo36(NO)4O108(H2O)16] [Mo36POM]
[2]
  IC50: > 1000 nM

## (S,S)-(^ n Bu4N)4[γ-SiW10O36{(C16H9)SO2NH(CH2)3Si}2O] [TBA (L)Trp-SiW10]
[2]
  IC50: 8.5 ± 0.4 nM

## (^ n Bu4N)3H[γ-SiW10O36{(C5H7N2OS)(CH2)4CONH(CH2)3Si}2O] [TBA Biotin-SiW10]
[2]
  IC50: 5.3 ± 0.6 nM

## Na10[Ru4(H2O)4(μ-O)4(μ-OH)2(γ-SiW10O36)2] [Ru4POM]
[2]
  IC50: 3.63 ± 0.17 nM
[3]
  IC50: 3.63 ± 0.09 nM
Tetrameric CK2 (α2β2)
  IC50: 5.57 ± 0.68 nM
CK2 [4]
  IC50: 18.5 ± 1.04 nM
CK2 [5]; CK2-tide peptide and casein
  mode of inhibition towards substrates: competitive inhibition
CK2 [5]; in presence of 5 nM Ru4POM, 100 μM ATP, ± SEM
  CK2-TIDE Vmax: 15019 ± 1635 cpm
CK2 [5]; in presence of 18 nM Ru4POM, 100 μM ATP, ± SEM
  CASEIN Vmax: 75417 ± 20117 a.u.
Recombinant CK2α; NaCl 0.2 M, CK2-tide
  inhibition of CK2 activity: 29%
Recombinant CK2α; NaCl 0.5 M, CK2-tide
  inhibition of CK2 activity: 22%
Recombinant CK2α; pH 7.5, without NaCl, CK2-tide
  inhibition of CK2 activity: 75%
Recombinant CK2α; pH 8.5, CK2-tide
  inhibition of CK2 activity: 66%
[6]; HEK-293T cells treated with the free compound
  CK2 inhibition in intact cells: do not detect any CK2 inhibition
[6]; HEK-293T, 10 μM Ru4POM, 24 h, combined with PEI or JetOptimus
  Akt1 phospho-Ser129 phosphorylation: reduced the phosphorylation of this site
[6]; inferred from lack of CK2 inhibition in treated cells
  cell permeability: too small cell permeability
CK2α; pH 8.5
  stoichiometry: 1.04 ± 0.02
  ΔG: -7.763 ± 0.11 kcal/mol
  ΔH: -7.885 ± 0.339 kcal/mol
  −TΔS: 0.12 ± 0.581 kcal/mol
CK2α; pH 8.5, 25°C, one site model, two experiments, read-out: apparent mean KD
  Kd: 2090 ± 360 nM
[7]
  stability in aqueous environment: stability was confirmed; also recorded: stable

## [P2Mo18O62]^6−
[8]
  chemical stability in an aqueous environment: low chemical stability

## [γ-SiW10O36{(C5H7N2OS)(CH2)4CONH(CH2)3Si}2O]^4− [Na Biotin-SiW10]
[2]
  IC50: 16.4 ± 1.3 nM

## [γ-SiW10O36{(C16H9)SO2NH(CH2)3Si}2O]^4− [Na (D)Trp-SiW10]
[2]
  IC50: 12.8 ± 1.7 nM

## [γ-SiW10O36{(C16H9)SO2NH(CH2)3Si}2O]^4− [Na (L)Trp-SiW10]
[2]
  IC50: 18.2 ± 1.9 nM

Source: publication PMC9201508, “Mechanism of CK2 Inhibition by a Ruthenium-Based Polyoxometalate” (Frontiers in Molecular Biosciences, 2022)
